Source: ChEMBL document CHEMBL1132959, “Design of potent dicyclic (1-5/4-10) gonadotropin releasing hormone (GnRH) antagonists” (J Med Chem, 2000)
Values belong to the compound of their own block, whether it stands above or below them.

Tests used:
Rattus norvegicus [1] = species on record: Rattus norvegicus; test: Antiovulatory potency at 500 ug/rat expressed as rats ovulating by total no. of rats (6/6); assay type: functional
[2] = target: T1, Gonadotropin-releasing hormone receptor (Rattus norvegicus, UniProt P30969); test: Affinity for rat gonadotrophin releasing hormone (GnRH) receptor using HEK293 cells transfected with rat Gonadotropin-releasing hormone receptor; assay type: cell-based; details: hek293
T1 sequence (P30969 whole entry): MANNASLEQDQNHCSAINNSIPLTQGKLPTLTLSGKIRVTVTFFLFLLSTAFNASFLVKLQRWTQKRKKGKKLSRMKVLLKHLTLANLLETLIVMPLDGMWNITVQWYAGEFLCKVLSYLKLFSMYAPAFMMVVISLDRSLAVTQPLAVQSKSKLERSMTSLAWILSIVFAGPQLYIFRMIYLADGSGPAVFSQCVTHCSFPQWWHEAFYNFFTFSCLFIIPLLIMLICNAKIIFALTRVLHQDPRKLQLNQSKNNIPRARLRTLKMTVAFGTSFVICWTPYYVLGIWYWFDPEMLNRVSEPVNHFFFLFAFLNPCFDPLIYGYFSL

[3] = target: T1, Gonadotropin-releasing hormone receptor; test: Affinity for rat Gonadotropin-releasing hormone receptor membrane evaluated using HEK293 cells transfected with rat Gonadotropin-releasing hormone receptor; assay type: cell-based
Rattus norvegicus [4] = species on record: Rattus norvegicus; test: Antiovulatory potency at 50 ug/rat expressed as rats ovulating by total no. of rats (4/8); assay type: functional
Rattus norvegicus [5] = species on record: Rattus norvegicus; test: Antiovulatory potency at 25 ug/rat expressed as rats ovulating by total no. of rats (4/4); assay type: functional
Rattus norvegicus [6] = species on record: Rattus norvegicus; test: Antiovulatory potency at 100 ug/rat expressed as rats ovulating by total no. of rats (0/8); assay type: functional
Rattus norvegicus [7] = species on record: Rattus norvegicus; test: Antiovulatory potency at 250 ug/rat expressed as rats ovulating by total no. of rats (4/4); assay type: functional
Rattus norvegicus [8] = species on record: Rattus norvegicus; test: Antiovulatory potency at 100 ug/rat expressed as rats ovulating by total no. of rats (4/7); assay type: functional
Rattus norvegicus [9] = species on record: Rattus norvegicus; test: Antiovulatory potency at 100 ug/rat expressed as rats ovulating by total no. of rats (1/8); assay type: functional
Rattus norvegicus [10] = species on record: Rattus norvegicus; test: Antiovulatory potency at 250 ug/rat expressed as rats ovulating by total no. of rats (0/5); assay type: functional
Rattus norvegicus [11] = species on record: Rattus norvegicus; test: Antiovulatory potency at 50 ug/rat expressed as rats ovulating by total no. of rats (1/8); assay type: functional
Rattus norvegicus [12] = species on record: Rattus norvegicus; test: Antiovulatory potency at 25 ug/rat expressed as rats ovulating by total no. of rats (5/5); assay type: functional
Rattus norvegicus [13] = species on record: Rattus norvegicus; test: Antiovulatory potency at 25 ug/rat expressed as rats ovulating by total no. of rats (3/6); assay type: functional
Rattus norvegicus [14] = species on record: Rattus norvegicus; test: Antiovulatory potency at 50 ug/rat expressed as rats ovulating by total no. of rats (2/5); assay type: functional
Rattus norvegicus [15] = species on record: Rattus norvegicus; test: Antiovulatory potency at 10 ug/rat expressed as rats ovulating by total no. of rats (3/3); assay type: functional
Rattus norvegicus [16] = species on record: Rattus norvegicus; test: Antiovulatory potency at 100 ug/rat expressed as rats ovulating by total no. of rats (0/3); assay type: functional
Rattus norvegicus [17] = species on record: Rattus norvegicus; test: Antiovulatory potency at 10 ug/rat expressed as rats ovulating by total no. of rats (2/7); assay type: functional
Rattus norvegicus [18] = species on record: Rattus norvegicus; test: Antiovulatory potency at 5 ug/rat expressed as rats ovulating by total no. of rats (3/3); assay type: functional
Rattus norvegicus [19] = species on record: Rattus norvegicus; test: Antiovulatory potency at 1000 ug/rat expressed as rats ovulating by total no. of rats (3/3); assay type: functional

Ki [3]: 2.9 nM
SMILES: CC(=O)N[C@H]1CCC(=O)NCC(=O)NCC[C@H]2NC(=O)[C@H](CC(=O)NC[C@@H](C(N)=O)NC(=O)[C@@H]3CCCN3C(=O)[C@H](CCCNC(=N)N)NC(=O)[C@H](CC(C)C)NC(=O)[C@@H](Cc3ccc4ccccc4c3)NC2=O)NC(=O)[C@@H](Cc2c[nH]c3ccccc23)NC(=O)[C@@H](Cc2ccc(Cl)cc2)NC1=O

Ki [2]: 1.7 nM
SMILES: CC(=O)N[C@@H]1CCC(=O)NCC[C@H]2NC(=O)[C@@H](CC(=O)NC[C@H](C(N)=O)NC(=O)[C@H]3CCCN3C(=O)[C@H](CCCN=C(N)N)NC(=O)[C@@H](CC(C)C)NC(=O)[C@@H](Cc3ccc4ccccc4c3)NC2=O)NC(=O)[C@@H](Cc2c[nH]c3ccccc23)NC(=O)[C@H](Cc2ccc(Cl)cc2)NC1=O
Ovulating rats (Rattus norvegicus [9]): 1
Ovulating rats (Rattus norvegicus [10]): 0

Ki [2]: 0.31 nM
SMILES: CC(=O)N[C@@H]1CC(=O)NCC(=O)NCCC[C@H]2NC(=O)[C@@H](CC(=O)NC[C@H](C(N)=O)NC(=O)[C@H]3CCCN3C(=O)[C@H](CCCN=C(N)N)NC(=O)[C@@H](CC(C)C)NC(=O)[C@@H](Cc3ccc4ccccc4c3)NC2=O)NC(=O)[C@@H](Cc2c[nH]c3ccccc23)NC(=O)[C@H](Cc2ccc(Cl)cc2)NC1=O
Ovulating rats (Rattus norvegicus [13]): 3
Ovulating rats (Rattus norvegicus [14]): 2
Ovulating rats (Rattus norvegicus [15]): 3
Ovulating rats (Rattus norvegicus [16]): 0

Ki [2]: 0.44 nM
SMILES: CC(=O)N[C@@H]1CCC(=O)NCC(=O)NC[C@H]2NC(=O)[C@@H](CC(=O)NC[C@H](C(N)=O)NC(=O)[C@H]3CCCN3C(=O)[C@H](CCCN=C(N)N)NC(=O)[C@@H](CC(C)C)NC(=O)[C@@H](Cc3ccc4ccccc4c3)NC2=O)NC(=O)[C@@H](Cc2c[nH]c3ccccc23)NC(=O)[C@H](Cc2ccc(Cl)cc2)NC1=O
Ovulating rats (Rattus norvegicus [17]): 2
Ovulating rats (Rattus norvegicus [18]): 3

More lines, now with the values behind:

SMILES: CC(=O)N[C@H]1CSSC[C@@H]2NC(=O)[C@@H](CC(=O)NC[C@H](C(N)=O)NC(=O)[C@H]3CCCN3C(=O)[C@H](CCCN=C(N)N)NC(=O)[C@@H](CC(C)C)NC(=O)[C@H](CCCN=C(N)N)NC2=O)NC(=O)[C@@H](Cc2c[nH]c3ccccc23)NC(=O)[C@H](Cc2ccc(Cl)cc2)NC1=O
Ovulating rats (Rattus norvegicus [1]): 6
Ki [2]: 89 nM

SMILES: CC(=O)N[C@H]1CC(=O)NCC(=O)NCC[C@H]2NC(=O)[C@H](CC(=O)NC[C@@H](C(N)=O)NC(=O)[C@@H]3CCCN3C(=O)[C@H](CCCN=C(N)N)NC(=O)[C@H](CC(C)C)NC(=O)[C@@H](Cc3ccc4ccccc4c3)NC2=O)NC(=O)[C@@H](Cc2c[nH]c3ccccc23)NC(=O)[C@@H](Cc2ccc(Cl)cc2)NC1=O
Ovulating rats (Rattus norvegicus [4]): 4
Ovulating rats (Rattus norvegicus [5]): 4
Ovulating rats (Rattus norvegicus [6]): 0

SMILES: CC(=O)N[C@H](Cc1ccc2ccccc2c1)C(=O)N[C@H](Cc1ccc(Cl)cc1)C(=O)N[C@@H]1CC(=O)NCCCC[C@@H]2NC(=O)[C@H](CC(C)C)NC(=O)[C@@H](Cc3ccc4ccccc4c3)NC(=O)[C@H](CCCN=C(N)N)NC(=O)[C@H](CC(=O)NC[C@@H](C(N)=O)NC(=O)[C@@H]3CCCN3C2=O)NC1=O
Ovulating rats (Rattus norvegicus [7]): 4
Ovulating rats (Rattus norvegicus [8]): 4

SMILES: CC(=O)N[C@@H]1CCC(=O)NCC(=O)NCC[C@@H]2NC(=O)[C@@H](CC(=O)NC[C@H](C(N)=O)NC(=O)[C@H]3CCCN3C(=O)[C@H](CCCN=C(N)N)NC(=O)[C@@H](CC(C)C)NC(=O)[C@@H](Cc3ccc4ccccc4c3)NC2=O)NC(=O)[C@@H](Cc2c[nH]c3ccccc23)NC(=O)[C@H](Cc2ccc(Cl)cc2)NC1=O
Ovulating rats (Rattus norvegicus [11]): 1
Ovulating rats (Rattus norvegicus [6]): 0
Ovulating rats (Rattus norvegicus [12]): 5

SMILES: CC(=O)N[C@H](Cc1ccc2ccccc2c1)C(=O)N[C@H](Cc1ccc(Cl)cc1)C(=O)N[C@@H]1CCC(=O)NCCCC[C@@H](C(=O)N2CCC[C@H]2C(=O)N[C@H](C)C(N)=O)NC(=O)[C@H](CC(C)C)NC(=O)[C@@H](Cc2ccc3ccccc3c2)NC(=O)[C@H](CCCN=C(N)N)NC(=O)[C@H](C)NC1=O
Ovulating rats (Rattus norvegicus [19]): 3
